Assay results from patent publication US6737383B1, “Herbicidal oxadiazolidines” (priority 1999, dated 2004).

Tests used:
[1] = system: bedstraw; test: Test B pre/postemergence bedstraw; assay type: in vivo, Galium aparine
How it was run: (§1)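 Response is a visual 0-to-10 score relative to untreated plants, where 0 means no effect and 10 means complete control, taken twelve to sixteen days after application. Treatments went onto soil at planting and onto foliage of 1- to 4-leaf plants, using a surfactant-containing non-phytotoxic solvent.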

[2] = system: wheat; test: Test B pre/postemergence wheat; assay type: in vivo, Triticum aestivum
How it was run: as §1

[3] = system: pigweed; test: Test B pre/postemergence pigweed; assay type: in vivo, Amaranthus retroflexus
How it was run: as §1

[4] = system: cocklebur; test: Test B pre/postemergence cocklebur; assay type: in vivo, Xanthium strumarium
How it was run: as §1

[5] = system: crabgrass; test: Test B pre/postemergence crabgrass; assay type: in vivo, Digitaria sanguinalis
How it was run: as §1

[6] = system: soybean; test: Test B pre/postemergence soybean; assay type: in vivo, Glycine max
How it was run: as §1

[7] = system: giant foxtail; test: Test B pre/postemergence giant foxtail; assay type: in vivo, Setaria faberii
How it was run: as §1

[8] = system: corn; test: Test B pre/postemergence corn; assay type: in vivo, Zea mays
How it was run: as §1

[9] = system: duck salad; test: Test B flood test duck salad; assay type: in vivo, Heteranthera limosa
How it was run: (§2)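 Read-out is a visual response score from 0 (no effect) to 10 (complete control), assigned by comparison with untreated controls. Treatment was applied at the 2-leaf stage, and plants stayed in the greenhouse for twelve to sixteen days before scoring.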

[10] = system: wild oat; test: Test B pre/postemergence wild oat; assay type: in vivo, Avena fatua
How it was run: as §1

[11] = system: blackgrass; test: Test B pre/postemergence blackgrass; assay type: in vivo, Alopecurus myosuroides
How it was run: as §1

[12] = system: surinam grass; test: Test B pre/postemergence surinam grass; assay type: in vivo, Brachiaria decumbens
How it was run: as §1

[13] = system: velvetleaf; test: Test B pre/postemergence velvetleaf; assay type: in vivo, Abutilon theophrasti
How it was run: as §1

[14] = system: sugar beet; test: Test B pre/postemergence sugar beet; assay type: in vivo, Beta vulgaris
How it was run: as §1

[15] = system: purple nutsedge; test: Test B pre/postemergence purple nutsedge; assay type: in vivo, Cyperus rotundus
How it was run: as §1

[16] = system: rice; test: Test B flood test rice; assay type: in vivo, Oryza sativa
How it was run: as §2

[17] = Preemergence, Rate 62 g/ha, scale of 0 to 10 where 0 is no effect and 10 is complete control
[18] = Preemergence, Rate 125 g/ha, 0 is no effect, 10 is complete control
[19] = Preemergence, Rate 250 g/ha, scale 0 to 10, 0 is no effect, 10 is complete control
[20] = Preemergence, Rate 500 g/ha, scale 0 to 10 (0 no effect, 10 complete control)
[21] = Rate 62 g/ha, Postemergence, scale of 0 to 10 where 0 is no effect and 10 is complete control
[22] = Rate 125 g/ha, Postemergence, scale 0 to 10
[23] = Rate 500 g/ha, Postemergence, scale 0 to 10
[24] = Rate 62 g/ha, headed Pre-emergence (flood test species), scale 0 to 10 (0 no effect, 10 complete control)
[25] = Rate 125 g/ha, Pre-emergence, flood test species, scale 0 to 10 where 0 is no effect and 10 is complete control
[26] = Rate 250 g/ha, Pre-emergence, flood-test species, scale 0 to 10, 0 is no effect, 10 is complete control
[27] = Rate 500 g/ha, headed Pre-emergence (flood test species), scale 0 to 10 (0 no effect, 10 complete control)

COc1nc(OC)nc(N(C(=O)n2oc(=O)n(-c3c(C)cccc3C)c2=O)C(C)C)n1 [Compound 180]
0: Bedstraw plant response rating [1, 17] | Bedstraw plant response rating (0 to 10 scale) [1, 18] | Bedstraw plant response rating [1, 19] | Bedstraw plant response rating [1, 20] | Bedstraw plant response rating [1, 21] | Bedstraw plant response rating [1, 22] | Plant response rating (0 to 10; 0 is no effect, 10 is complete control), Bedstraw ([1]; Rate 250 g/ha, Postemergence) | Bedstraw plant response rating [1, 23] | Wheat plant response rating [2, 17] | Wheat plant response rating [2, 19] | Wheat plant response rating [2, 20] | Wheat plant response rating [2, 22] | Plant response rating (0 to 10; 0 is no effect, 10 is complete control), Wheat ([2]; Rate 250 g/ha, Postemergence) | Wheat plant response rating [2, 23] | Redroot pigweed plant response rating [3, 17] | Redroot pigweed plant response rating (0 to 10 scale) [3, 18] | Redroot pigweed plant response rating [3, 19] | Redroot pigweed plant response rating [3, 20] | Redroot pigweed plant response rating [3, 21] | Redroot pigweed plant response rating [3, 22] | Plant response rating (0 to 10; 0 is no effect, 10 is complete control), Redroot pigweed ([3]; Rate 250 g/ha, Postemergence) | Redroot pigweed plant response rating [3, 23] | Cocklebur plant response rating [4, 17] | Cocklebur plant response rating (0 to 10 scale) [4, 18] | Cocklebur plant response rating [4, 19] | Cocklebur plant response rating [4, 20] | Cocklebur plant response rating [4, 21] | Cocklebur plant response rating [4, 22] | Plant response rating (0 to 10; 0 is no effect, 10 is complete control), Cocklebur ([4]; Rate 250 g/ha, Postemergence) | Cocklebur plant response rating [4, 23] | Crabgrass plant response rating [5, 17] | Crabgrass plant response rating (0 to 10 scale) [5, 18] | Crabgrass plant response rating [5, 19] | Crabgrass plant response rating [5, 20] | Crabgrass plant response rating [5, 21] | Crabgrass plant response rating [5, 22] | Plant response rating (0 to 10; 0 is no effect, 10 is complete control), Crabgrass ([5]; Rate 250 g/ha, Postemergence) | Crabgrass plant response rating [5, 23] | Soybean plant response rating [6, 17] | Soybean plant response rating (0 to 10 scale) [6, 18] | Soybean plant response rating [6, 19] | Soybean plant response rating [6, 20] | Soybean plant response rating [6, 21] | Soybean plant response rating [6, 22] | Plant response rating (0 to 10; 0 is no effect, 10 is complete control), Soybean ([6]; Rate 250 g/ha, Postemergence) | Soybean plant response rating [6, 23] | Giant foxtail plant response rating [7, 17] | Giant foxtail plant response rating (0 to 10 scale) [7, 18] | Giant foxtail plant response rating [7, 19] | Giant foxtail plant response rating [7, 20] | Giant foxtail plant response rating [7, 21] | Giant foxtail plant response rating [7, 22] | Plant response rating (0 to 10; 0 is no effect, 10 is complete control), Giant foxtail ([7]; Rate 250 g/ha, Postemergence) | Giant foxtail plant response rating [7, 23] | Corn plant response rating [8, 17] | Corn plant response rating (0 to 10 scale) [8, 18] | Corn plant response rating [8, 19] | Corn plant response rating [8, 20] | Corn plant response rating [8, 21] | Corn plant response rating [8, 22] | Plant response rating (0 to 10; 0 is no effect, 10 is complete control), Corn ([8]; Rate 250 g/ha, Postemergence) | Corn plant response rating [8, 23] | Ducksalad plant response rating [9, 24] | Ducksalad plant response rating [9, 25] | Ducksalad plant response rating [9, 26] | Plant response rating, Ducksalad [9, 27] | Wild oats plant response rating [10, 17] | Wild oats plant response rating [10, 19] | Wild oats plant response rating [10, 20] | Wild oats plant response rating [10, 22] | Plant response rating (0 to 10; 0 is no effect, 10 is complete control), Wild oats ([10]; Rate 250 g/ha, Postemergence) | Wild oats plant response rating [10, 23] | Blackgrass plant response rating [11, 17] | Blackgrass plant response rating (0 to 10 scale) [11, 18] | Blackgrass plant response rating [11, 19] | Blackgrass plant response rating [11, 20] | Blackgrass plant response rating [11, 21] | Blackgrass plant response rating [11, 22] | Plant response rating (0 to 10; 0 is no effect, 10 is complete control), Blackgrass ([11]; Rate 250 g/ha, Postemergence) | Blackgrass plant response rating [11, 23] | B. signalgrass plant response rating [12, 17] | B. signalgrass plant response rating (0 to 10 scale) [12, 18] | B. signalgrass plant response rating [12, 19] | B. signalgrass plant response rating [12, 20] | B. signalgrass plant response rating [12, 21] | B. signalgrass plant response rating ([12]; Rate 125 g/ha, Postemergence, scale 0 (no effect) to 10 (complete control)) | Plant response rating, B. signalgrass ([12]; Rate 250 g/ha, Postemergence, scale 0 to 10, 0 is no effect, 10 is complete control) | B. signalgrass plant response rating ([12]; Rate 500 g/ha, Postemergence, scale 0 to 10, 0 no effect, 10 complete control) | Velvetleaf plant response rating [13, 17] | Velvetleaf plant response rating [13, 19] | Velvetleaf plant response rating [13, 20] | Velvetleaf plant response rating [13, 22] | Plant response rating (0 to 10; 0 is no effect, 10 is complete control), Velvetleaf ([13]; Rate 250 g/ha, Postemergence) | Velvetleaf plant response rating [13, 23] | Sugarbeets plant response rating [14, 17] | Sugarbeets plant response rating (0 to 10 scale) [14, 18] | Sugarbeets plant response rating [14, 19] | Sugarbeets plant response rating [14, 20] | Sugarbeets plant response rating [14, 21] | Sugarbeets plant response rating [14, 22] | Plant response rating (0 to 10; 0 is no effect, 10 is complete control), Sugarbeets ([14]; Rate 250 g/ha, Postemergence) | Sugarbeets plant response rating [14, 23] | Nutsedge plant response rating [15, 17] | Nutsedge plant response rating (0 to 10 scale) [15, 18] | Nutsedge plant response rating [15, 19] | Nutsedge plant response rating [15, 20] | Nutsedge plant response rating [15, 21] | Nutsedge plant response rating [15, 22] | Plant response rating (0 to 10; 0 is no effect, 10 is complete control), Nutsedge ([15]; Rate 250 g/ha, Postemergence) | Nutsedge plant response rating [15, 23] | Rice plant response rating [16, 24] | Rice plant response rating [16, 25] | Rice plant response rating [16, 26] | Plant response rating, Rice [16, 27]
